Experiments:
Test in all cases: Post-emergence herbicidal activity test (stem and leaf spray, pot culture)
Type in all cases: in vivo
Conditions in all cases: 3 weeks after spraying
Abutilon theophrasti = test system: Abutilon theophrasti
Method in brief: (§1)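 Activity is given as a 0–5 grade of fresh weight growth control, scored three weeks after a single stem-and-leaf spray. Weeds in farmland loam were treated at the 2- to 3-leaf stage at 10, 5 and 2.5 g/mu, with methyl oleate added as synergist.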

Amaranthus retroflexus = test system: Amaranthus retroflexus
Method in brief: as §1

Echinochloa crusgalli = test system: Echinochloa crusgalli
Method in brief: as §1

Portulaca oleracea = test system: Portulaca oleracea
Method in brief: as §1

Setaria viridis = test system: Setaria viridis
Method in brief: as §1

Trifoliumre pensL. = test system: Trifoliumre pensL.
Method in brief: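 Rates of 10, 5 and 2.5 g/mu were applied in a single spray-tower treatment to 2–3-leaf plants, thinned to 10 per pot. Formulation: acetone solution, Tween 80, 1.5 L/ha methyl oleate synergist. Weed response assessed after 3 further greenhouse weeks; mean of three experiments.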

`O=C1C2=C(CCCC2)C(=O)N1c1cc(OCc2nc(-c3cccc(Cl)c3)no2)c(Cl)cc1F` [Compound A3] was tested, and the “Post-emergence herbicidal activity, A. theophrasti (grade)” value (Abutilon theophrasti; dosage 2.5 g/mu) was 5 (Grade 5: the growth control rate is greater than or equal to 85%), the “Post-emergence herbicidal activity, A. theophrasti (grade)” value (Abutilon theophrasti; dosage 5 g/mu) was 5 (Grade 5: the growth control rate is greater than or equal to 85%) and the “Post-emergence herbicidal activity, A. theophrasti (grade)” value (Abutilon theophrasti; dosage 10 g/mu) was 5 (Grade 5: the growth control rate is greater than or equal to 85%). For the same molecule, the “Post-emergence herbicidal activity, A. retroflexus (grade)” value (Amaranthus retroflexus; dosage 2.5 g/mu) was 5 (Grade 5: the growth control rate is greater than or equal to 85%), the “Post-emergence herbicidal activity, A. retroflexus (grade)” value (Amaranthus retroflexus; dosage 5 g/mu) was 5 (Grade 5: the growth control rate is greater than or equal to 85%) and the “Post-emergence herbicidal activity, A. retroflexus (grade)” value (Amaranthus retroflexus; dosage 10 g/mu) was 5 (Grade 5: the growth control rate is greater than or equal to 85%). For the same molecule, the “Post-emergence herbicidal activity, E. crusgalli (grade)” value (Echinochloa crusgalli; dosage 2.5 g/mu) was 1 (Grade 1: the growth control rate is greater than or equal to 5% and less than 20%), the “Post-emergence herbicidal activity, E. crusgalli (grade)” value (Echinochloa crusgalli; dosage 5 g/mu) was 2 (Grade 2: the growth control rate is greater than or equal to 20% and less than 40%) and the “Post-emergence herbicidal activity, E. crusgalli (grade)” value (Echinochloa crusgalli; dosage 10 g/mu) was 3 (Grade 3: the growth control rate is greater than or equal to 40% and less than 60%). The “Post-emergence herbicidal activity, P. oleracea (grade)” value (Portulaca oleracea; dosage 2.5 g/mu) was 4 (Grade 4: the growth control rate is greater than or equal to 60% and less than 85%), the “Post-emergence herbicidal activity, P. oleracea (grade)” value (Portulaca oleracea; dosage 5 g/mu) was 5 (Grade 5: the growth control rate is greater than or equal to 85%) and the “Post-emergence herbicidal activity, P. oleracea (grade)” value (Portulaca oleracea; dosage 10 g/mu) was 5 (Grade 5: the growth control rate is greater than or equal to 85%). For the same molecule, the “Post-emergence herbicidal activity, S. viridis (grade)” value (Setaria viridis; dosage 2.5 g/mu) was 2 (Grade 2: the growth control rate is greater than or equal to 20% and less than 40%), the “Post-emergence herbicidal activity, S. viridis (grade)” value (Setaria viridis; dosage 5 g/mu) was 3 (Grade 3: the growth control rate is greater than or equal to 40% and less than 60%) and the “Post-emergence herbicidal activity, S. viridis (grade)” value (Setaria viridis; dosage 10 g/mu) was 4 (Grade 4: the growth control rate is greater than or equal to 60% and less than 85%). For the same molecule, the “Post-emergence herbicidal activity, Trifoliumre pensL. (grade)” value (Trifoliumre pensL.; dosage 2.5 g/mu) was 4 (Grade 4: the growth control rate is greater than or equal to 60% and less than 85%), the “Post-emergence herbicidal activity, Trifoliumre pensL. (grade)” value (Trifoliumre pensL.; dosage 5 g/mu) was 5 (Grade 5: the growth control rate is greater than or equal to 85%) and the “Post-emergence herbicidal activity, Trifoliumre pensL. (grade)” value (Trifoliumre pensL.; dosage 10 g/mu) was 5 (Grade 5: the growth control rate is greater than or equal to 85%).
